The source made the active and inactive calls. No cut-off for these calls is given here.
What was measured:
Salmonella typhimurium [1] = assay: Antimicrobial activity against Salmonella typhimurium WDCM 00031 after 24 to 48 hrs by broth microdilution assay; assay type: functional, Salmonella enterica subsp. enterica serovar Typhimurium; conditions: Salmonella enterica
Candida albicans = assay: Antifungal activity against Candida albicans ATCC 90029 after 24 to 48 hrs by broth microdilution assay; assay type: functional
Klebsiella pneumoniae [2] = assay: Antimicrobial activity against Klebsiella pneumoniae clinical isolate after 24 to 48 hrs by broth microdilution assay; assay type: functional
Enterococcus faecalis [3] = assay: Bactericidal activity against Enterococcus faecalis ATCC 29212 preincubated for 24 to 48 hrs followed by replating on MHA plates and measured after 18 hrs by broth microdilution assay; assay type: functional
Acinetobacter baumannii [4] = assay: Bactericidal activity against Acinetobacter baumannii clinical isolate preincubated for 24 to 48 hrs followed by replating on MHA plates and measured after 18 hrs by broth microdilution assay; assay type: functional
Enterococcus faecalis [5] = assay: Antimicrobial activity against Enterococcus faecalis ATCC 29212 after 24 to 48 hrs by broth microdilution assay; assay type: functional
Staphylococcus aureus [6] = assay: Antimicrobial activity against methicillin-resistant Staphylococcus aureus clinical isolate after 24 to 48 hrs by broth microdilution assay; assay type: functional
Klebsiella pneumoniae [7] = assay: Bactericidal activity against Klebsiella pneumoniae ATCC 13883 preincubated for 24 to 48 hrs followed by replating on MHA plates and measured after 18 hrs by broth microdilution assay; assay type: functional
Aspergillus niger = assay: Antifungal activity against Aspergillus niger after 24 to 48 hrs by broth microdilution assay; assay type: functional
Acinetobacter baumannii [8] = assay: Bactericidal activity against Acinetobacter baumannii ATCC 19606 preincubated for 24 to 48 hrs followed by replating on MHA plates and measured after 18 hrs by broth microdilution assay; assay type: functional; conditions: ATCC 19606 = CIP 70.34 = JCM 6841
Acinetobacter baumannii [9] = assay: Antimicrobial activity against Acinetobacter baumannii clinical isolate after 24 to 48 hrs by broth microdilution assay; assay type: functional
Klebsiella pneumoniae [10] = assay: Bactericidal activity against Klebsiella pneumoniae clinical isolate preincubated for 24 to 48 hrs followed by replating on MHA plates and measured after 18 hrs by broth microdilution assay; assay type: functional
Listeria monocytogenes [11] = assay: Antimicrobial activity against Listeria monocytogenes ATCC 19111 (1/2a) after 24 to 48 hrs by broth microdilution assay; assay type: functional
Staphylococcus aureus [12] = assay: Bactericidal activity against Staphylococcus aureus ATCC 29213 preincubated for 24 to 48 hrs followed by replating on MHA plates and measured after 18 hrs by broth microdilution assay; assay type: functional
Klebsiella pneumoniae [13] = assay: Antimicrobial activity against Klebsiella pneumoniae ATCC 13883 after 24 to 48 hrs by broth microdilution assay; assay type: functional
Acinetobacter baumannii [14] = assay: Antimicrobial activity against Acinetobacter baumannii ATCC 19606 after 24 to 48 hrs by broth microdilution assay; assay type: functional; conditions: ATCC 19606 = CIP 70.34 = JCM 6841
Escherichia coli [15] = assay: Bactericidal activity against Escherichia coli clinical isolate preincubated for 24 to 48 hrs followed by replating on MHA plates and measured after 18 hrs by broth microdilution assay; assay type: functional
Salmonella typhimurium [16] = assay: Bactericidal activity against Salmonella typhimurium WDCM 00031 preincubated for 24 to 48 hrs followed by replating on MHA plates and measured after 18 hrs by broth microdilution assay; assay type: functional, Salmonella enterica subsp. enterica serovar Typhimurium; conditions: Salmonella enterica
Pseudomonas aeruginosa [17] = assay: Bactericidal activity against Pseudomonas aeruginosa ATCC 27853 preincubated for 24 to 48 hrs followed by replating on MHA plates and measured after 18 hrs by broth microdilution assay; assay type: functional
Streptococcus pyogenes [18] = assay: Antimicrobial activity against Streptococcus pyogenes ATCC 19615 after 24 to 48 hrs by broth microdilution assay; assay type: functional
TERT-RPE1 = assay: Cytotoxicity against human RPE1 cells assessed as reduction in cell viability after 48 hrs by MTS assay; assay type: cell-based; conditions: RPE-1, 48 h
Escherichia coli [19] = assay: Antimicrobial activity against Escherichia coli ATCC 25922 after 24 to 48 hrs by broth microdilution assay; assay type: functional
Listeria monocytogenes [20] = assay: Bactericidal activity against Listeria monocytogenes ATCC 19111 (1/2a) preincubated for 24 to 48 hrs followed by replating on MHA plates and measured after 18 hrs by broth microdilution assay; assay type: functional
Escherichia coli [21] = assay: Antimicrobial activity against Escherichia coli clinical isolate after 24 to 48 hrs by broth microdilution assay; assay type: functional
Streptococcus pyogenes [22] = assay: Bactericidal activity against Streptococcus pyogenes ATCC 19615 preincubated for 24 to 48 hrs followed by replating on MHA plates and measured after 18 hrs by broth microdilution assay; assay type: functional
Escherichia coli [23] = assay: Bactericidal activity against Escherichia coli ATCC 25922 preincubated for 24 to 48 hrs followed by replating on MHA plates and measured after 18 hrs by broth microdilution assay; assay type: functional
Staphylococcus aureus [24] = assay: Antimicrobial activity against Staphylococcus aureus ATCC 29213 after 24 to 48 hrs by broth microdilution assay; assay type: functional
Pseudomonas aeruginosa [25] = assay: Antimicrobial activity against Pseudomonas aeruginosa ATCC 27853 after 24 to 48 hrs by broth microdilution assay; assay type: functional
Staphylococcus aureus [26] = assay: Bactericidal activity against methicillin-resistant Staphylococcus aureus clinical isolate preincubated for 24 to 48 hrs followed by replating on MHA plates and measured after 18 hrs by broth microdilution assay; assay type: functional
HEK293 = assay: Cytotoxicity against HEK293 cells assessed as reduction in cell viability after 48 hrs by MTS assay; assay type: cell-based; conditions: Homo sapiens, HEK293, 48 h
Penicillium citrinum = assay: Antifungal activity against Penicillium citrinum after 24 to 48 hrs by broth microdilution assay; assay type: functional
Staphylococcus aureus [27] = assay: Antimicrobial activity against Staphylococcus aureus ATCC 29213 assessed as bacterial membrane disruption by measuring live cells at 4 times MIC after 15 mins by thiazole orange/propidium iodide staining based flow cytometric analysis (reference value: 88.47%); assay type: functional
Staphylococcus aureus [28] = assay: Growth inhibition in Staphylococcus aureus ATCC 29213 at 1/4 to 1/2 times MIC after 6 hrs; assay type: functional, organism-based
Staphylococcus aureus [29] = assay: Antimicrobial activity against Staphylococcus aureus ATCC 29213 assessed as bacterial membrane disruption by measuring dead cells at MIC after 15 mins by thiazole orange/propidium iodide staining based flow cytometric analysis (reference value: 3.22%); assay type: functional
Staphylococcus aureus [30] = assay: Antimicrobial activity against Staphylococcus aureus ATCC 29213 assessed as dead cells at 4 times MIC by fluorescence microscopic analysis; assay type: functional, organism-based
Staphylococcus aureus [31] = assay: Induction of morphological changes in Staphylococcus aureus ATCC 29213 assessed as cell wall damage at MIC after 3 hrs by atomic force microscopic analysis; assay type: functional, organism-based
Staphylococcus aureus [32] = assay: Induction of membrane lysis in Staphylococcus aureus ATCC 29213 at 4 to 8 times MIC by spectroflurometric analysis based propidium iodide uptake assay; assay type: functional, organism-based
Staphylococcus aureus [33] = assay: Induction of morphological changes in Staphylococcus aureus ATCC 29213 assessed as cell wall damage at 8 times MIC after 1 hr by atomic force microscopic analysis; assay type: functional, organism-based
Staphylococcus aureus [34] = assay: Antimicrobial activity against Staphylococcus aureus ATCC 29213 assessed as live cells at MIC by fluorescence microscopic analysis; assay type: functional, organism-based
Staphylococcus aureus [35] = assay: Antimicrobial activity against Staphylococcus aureus ATCC 29213 assessed as bacterial membrane disruption by measuring live cells at MIC after 15 mins by thiazole orange/propidium iodide staining based flow cytometric analysis (reference value: 88.47%); assay type: functional
Staphylococcus aureus [36] = assay: Induction of membrane lysis in Staphylococcus aureus ATCC 29213 at 0.5 to 1 times MIC by spectroflurometric analysis based propidium iodide uptake assay; assay type: functional, organism-based
Staphylococcus aureus [37] = assay: Induction of morphological changes in Staphylococcus aureus ATCC 29213 assessed as cell wall damage at MIC after 1 hr by atomic force microscopic analysis; assay type: functional, organism-based
Staphylococcus aureus [38] = assay: Antimicrobial activity against Staphylococcus aureus ATCC 29213 assessed as bacterial membrane disruption by measuring dead cells at 4 times MIC after 15 mins by thiazole orange/propidium iodide staining based flow cytometric analysis (reference value: 3.22%); assay type: functional
Staphylococcus aureus [39] = assay: Antibiofilm activity against Staphylococcus aureus ATCC 29213 after 3 days by crystal violet staining based assay; assay type: functional, organism-based
Staphylococcus aureus [40] = assay: Antibiofilm activity against Staphylococcus aureus ATCC 29213 at 1/32 to 1/2 times MIC after 3 days by crystal violet staining based assay relative to control; assay type: functional

## CCCCCCCCCCCC[N+]12CCC(CC1)C(O)C2.[Br-] (configuration not stated)
Salmonella typhimurium [1]
  MIC: 250 µg/mL
Candida albicans
  MIC50: 1.95 µg/mL
  MIC90: 3.9 µg/mL
Klebsiella pneumoniae [2]
  MIC: 250 µg/mL
Enterococcus faecalis [3]
  MBC: 15.6 µg/mL
Acinetobacter baumannii [4]
  MBC: 125 µg/mL
Enterococcus faecalis [5]
  MIC: 15.6 µg/mL
Staphylococcus aureus [6]
  MIC: 62.5 µg/mL
Klebsiella pneumoniae [7]
  MBC: 125 µg/mL
Aspergillus niger
  MIC50: 7.8 µg/mL
  MIC90: 15.6 µg/mL
Acinetobacter baumannii [8]
  MBC: 250 µg/mL
Acinetobacter baumannii [9]
  MIC: 62.5 µg/mL
Klebsiella pneumoniae [10]
  MBC: 250 µg/mL
Listeria monocytogenes [11]
  MIC: 31.2 µg/mL
Staphylococcus aureus [12]
  MBC: 15.6 µg/mL
Klebsiella pneumoniae [13]
  MIC: 125 µg/mL
Acinetobacter baumannii [14]
  MIC: 125 µg/mL
Escherichia coli [15]
  MBC: 62.5 µg/mL
Salmonella typhimurium [16]
  MBC: 250 µg/mL
Pseudomonas aeruginosa [17]
  MBC: 500 µg/mL
Streptococcus pyogenes [18]
  MIC: 0.48 µg/mL
TERT-RPE1
  IC50: 8 µg/mL
Escherichia coli [19]
  MIC: 62.5 µg/mL
Listeria monocytogenes [20]
  MBC: 31.2 µg/mL
Escherichia coli [21]
  MIC: 62.5 µg/mL
Streptococcus pyogenes [22]
  MBC: 0.48 µg/mL
Escherichia coli [23]
  MBC: 62.5 µg/mL
Staphylococcus aureus [24]
  MIC: 15.6 µg/mL
Pseudomonas aeruginosa [25]
  MIC: 250 µg/mL
Staphylococcus aureus [26]
  MBC: 62.5 µg/mL
HEK293
  IC50: 1 µg/mL
Penicillium citrinum
  MIC50: 31.2 µg/mL
  MIC90: 62.5 µg/mL

## CCCCCCCCCCCCCC[N+]12CCC(CC1)C(O)C2.[Br-] (configuration not stated)
Salmonella typhimurium [1]
  MIC: 31.2 µg/mL
Candida albicans
  MIC50: 0.06 µg/mL
  MIC90: 0.12 µg/mL
Klebsiella pneumoniae [2]
  MIC: 15.6 µg/mL
Enterococcus faecalis [3]
  MBC: 0.97 µg/mL
Acinetobacter baumannii [4]
  MBC: 15.6 µg/mL
Enterococcus faecalis [5]
  MIC: 0.97 µg/mL
Staphylococcus aureus [6]
  MIC: 3.9 µg/mL
Klebsiella pneumoniae [7]
  MBC: 15.6 µg/mL
Aspergillus niger
  MIC50: 0.48 µg/mL
  MIC90: 0.97 µg/mL
Staphylococcus aureus [27]
  Activity: 23.66%
Staphylococcus aureus [28]
  growth inhibition (GI): Active
Staphylococcus aureus [29]
  Activity: 14.54%
Acinetobacter baumannii [8]
  MBC: 15.6 µg/mL
Acinetobacter baumannii [9]
  MIC: 7.8 µg/mL
Klebsiella pneumoniae [10]
  MBC: 15.6 µg/mL
Staphylococcus aureus [30]
  Activity: Active
Listeria monocytogenes [11]
  MIC: 3.9 µg/mL
Staphylococcus aureus [12]
  MBC: 0.97 µg/mL
Klebsiella pneumoniae [13]
  MIC: 15.6 µg/mL
Acinetobacter baumannii [14]
  MIC: 15.6 µg/mL
Staphylococcus aureus [31]
  Activity: Active
Escherichia coli [15]
  MBC: 15.6 µg/mL
Salmonella typhimurium [16]
  MBC: 31.2 µg/mL
Pseudomonas aeruginosa [17]
  MBC: 31.2 µg/mL
Staphylococcus aureus [32]
  Activity: Active
Streptococcus pyogenes [18]
  MIC: 0.06 µg/mL
TERT-RPE1
  IC50: 15 µg/mL
Escherichia coli [19]
  MIC: 3.9 µg/mL
Listeria monocytogenes [20]
  MBC: 3.9 µg/mL
Escherichia coli [21]
  MIC: 15.6 µg/mL
Staphylococcus aureus [33]
  Activity: Active
Streptococcus pyogenes [22]
  MBC: 0.06 µg/mL
Escherichia coli [23]
  MBC: 7.8 µg/mL
Staphylococcus aureus [34]
  Activity: Active
Staphylococcus aureus [35]
  Activity: 66.27%
Staphylococcus aureus [24]
  MIC: 0.97 µg/mL
Pseudomonas aeruginosa [25]
  MIC: 31.2 µg/mL
Staphylococcus aureus [36]
  Activity: inactive
Staphylococcus aureus [26]
  MBC: 3.9 µg/mL
Staphylococcus aureus [37]
  Activity: inactive
Staphylococcus aureus [38]
  Activity: 55.69%
Staphylococcus aureus [39]
  Activity: Dose-dependent effect
HEK293
  IC50: 1 µg/mL
Penicillium citrinum
  MIC50: 1.95 µg/mL
  MIC90: 3.9 µg/mL
Staphylococcus aureus [40]
  Activity: 2.3 - 84%

From ChEMBL document CHEMBL4411284, “Discovery of novel quaternary ammonium compounds based on quinuclidine-3-ol as new potential antimicrobial candidates” (Eur J Med Chem, 2019)
